Molecular target: T1, human CTPS1 (Homo sapiens, UniProt P17812)
T1 sequence (P17812 1-591): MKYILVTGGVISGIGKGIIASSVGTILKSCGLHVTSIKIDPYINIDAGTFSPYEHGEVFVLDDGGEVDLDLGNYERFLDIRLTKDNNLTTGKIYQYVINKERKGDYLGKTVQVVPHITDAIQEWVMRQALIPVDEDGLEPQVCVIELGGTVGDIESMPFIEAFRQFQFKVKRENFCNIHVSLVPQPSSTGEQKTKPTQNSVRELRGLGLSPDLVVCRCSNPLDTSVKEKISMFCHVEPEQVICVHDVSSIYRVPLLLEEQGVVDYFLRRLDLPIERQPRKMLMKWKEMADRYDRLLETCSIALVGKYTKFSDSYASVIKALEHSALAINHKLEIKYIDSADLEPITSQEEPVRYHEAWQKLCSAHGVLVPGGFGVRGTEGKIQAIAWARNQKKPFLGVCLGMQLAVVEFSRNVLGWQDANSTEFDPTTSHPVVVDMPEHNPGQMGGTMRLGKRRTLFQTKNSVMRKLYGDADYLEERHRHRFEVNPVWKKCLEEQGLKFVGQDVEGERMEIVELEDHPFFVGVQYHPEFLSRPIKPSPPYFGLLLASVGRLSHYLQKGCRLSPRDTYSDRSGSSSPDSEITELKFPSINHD
Test: ADP-Glo assay, human CTPS1 enzyme inhibition
Assay type: biochemical
Conditions: wild-type human CTPS1, 25 nM enzyme; ADP-Glo; read-out: ADP-Glo_WT_hCTPS1—25 nM_IC50 (IC50)
Method in brief: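 Full-length tagged human CTPS1 (25 nM) pre-incubated 10 min at 25° C with compound, then 10 min with ATP (120 μM) and UTP (160 μM); reaction started with L-glutamine (100 μM) and GTP (60 μM), 1% DMSO, in HEPES pH 7.4, 10 mM Mg2+, 5 mM KCl, 2 mM DTT. Run within linear phase at 25° C; ADP measured by ADP-Glo luminescence.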

SMILES: CCOc1cncc(-c2ccc(C(=O)N[C@H](c3cc(NS(=O)(=O)C4CC4)ccn3)[C@H]3CCCO3)nc2)n1 [I-67, N-((R)-(4-(cyclopropanesulfonamido)pyridin-2-yl)((R)-tetrahydrofuran-2-yl)methyl)-5-(6-ethoxypyrazin-2-yl)picolinamide]
- IC50: 25 to 50 nM

SMILES: CCOc1cncc(-c2ccc(C(=O)N[C@H](c3cc(NS(=O)(=O)C4CC4)ccn3)[C@@H]3CCCO3)nc2)n1 [I-68, N-((R)-(4-(cyclopropanesulfonamido)pyridin-2-yl)((S)-tetrahydrofuran-2-yl)methyl)-5-(6-ethoxypyrazin-2-yl)picolinamide]
- IC50: 25 to 50 nM

SMILES: CCOc1cncc(-c2ccc(C(=O)N[C@@H](c3cc(NS(=O)(=O)C4CC4)ccn3)[C@@H]3CCCO3)nc2)n1 [I-69, N-((S)-(4-(cyclopropanesulfonamido)pyridin-2-yl)((S)-tetrahydrofuran-2-yl)methyl)-5-(6-ethoxypyrazin-2-yl)picolinamide]
- IC50: 25 to 50 nM

SMILES: CCOc1cncc(-c2ccc(C(=O)N[C@@H](c3cc(NS(=O)(=O)C4CC4)ccn3)[C@H]3CCCO3)nc2)n1 [I-70, N-((S)-(4-(cyclopropanesulfonamido)pyridin-2-yl)((R)-tetrahydrofuran-2-yl)methyl)-5-(6-ethoxypyrazin-2-yl)picolinamide]
- IC50: 25 to 50 nM

SMILES: CCOc1cncc(-c2cnc(C(=O)N[C@H](c3cc(NS(=O)(=O)C4CC4)ccn3)[C@H]3COCCO3)s2)n1 [I-73, N-((R)-(4-(cyclopropanesulfonamido)pyridin-2-yl)((S)-1,4-dioxan-2-yl)methyl)-5-(6-ethoxypyrazin-2-yl)thiazole-2-carboxamide]
- IC50: 5 to 25 nM

SMILES: CCOc1cncc(-c2cnc(C(=O)N[C@H](c3cc(NS(=O)(=O)C4CC4)ccn3)[C@@H]3COCCO3)s2)n1 [I-74, N-((R)-(4-(cyclopropanesulfonamido)pyridin-2-yl)((R)-1,4-dioxan-2-yl)methyl)-5-(6-ethoxypyrazin-2-yl)thiazole-2-carboxamide]
- IC50: 5 to 25 nM

SMILES: CCOc1cncc(-c2cnc(C(=O)N[C@@H](c3cc(NS(=O)(=O)C4CC4)ccn3)[C@H]3COCCO3)s2)n1 [I-75, N-((S)-(4-(cyclopropanesulfonamido)pyridin-2-yl)((S)-1,4-dioxan-2-yl)methyl)-5-(6-ethoxypyrazin-2-yl)thiazole-2-carboxamide]
- IC50: 5 to 25 nM

SMILES: CCOc1cncc(-c2cnc(C(=O)N[C@@H](c3cc(NS(=O)(=O)C4CC4)ccn3)[C@@H]3COCCO3)s2)n1 [I-76, N-((S)-(4-(cyclopropanesulfonamido)pyridin-2-yl)((R)-1,4-dioxan-2-yl)methyl)-5-(6-ethoxypyrazin-2-yl)thiazole-2-carboxamide]
- IC50: ≤ 5 nM

SMILES: O=C(N[C@H](c1cc(NS(=O)(=O)C2CC2)ccn1)[C@H]1COCCO1)c1ncc(-c2cnn3ccc(Cl)cc23)s1 [I-77, 5-(5-chloropyrazolo[1,5-a]pyridin-3-yl)-N-((R)-(4-(cyclopropanesulfonamido)pyridin-2-yl)((S)-1,4-dioxan-2-yl)methyl)thiazole-2-carboxamide]
- IC50: 5 to 25 nM

SMILES: O=C(N[C@H](c1cc(NS(=O)(=O)C2CC2)ccn1)[C@@H]1COCCO1)c1ncc(-c2cnn3ccc(Cl)cc23)s1 [I-78, 5-(5-chloropyrazolo[1,5-a]pyridin-3-yl)-N-((R)-(4-(cyclopropanesulfonamido)pyridin-2-yl)((R)-1,4-dioxan-2-yl)methyl)thiazole-2-carboxamide]
- IC50: 5 to 25 nM

SMILES: O=C(N[C@@H](c1cc(NS(=O)(=O)C2CC2)ccn1)[C@@H]1COCCO1)c1ncc(-c2cnn3ccc(Cl)cc23)s1 [I-79, 5-(5-chloropyrazolo[1,5-a]pyridin-3-yl)-N-((S)-(4-(cyclopropanesulfonamido)pyridin-2-yl)((R)-1,4-dioxan-2-yl)methyl)thiazole-2-carboxamide]
- IC50: 5 to 25 nM

SMILES: O=C(N[C@@H](c1cc(NS(=O)(=O)C2CC2)ccn1)[C@H]1COCCO1)c1ncc(-c2cnn3ccc(Cl)cc23)s1 [I-80, 5-(5-chloropyrazolo[1,5-a]pyridin-3-yl)-N-((S)-(4-(cyclopropanesulfonamido)pyridin-2-yl)((S)-1,4-dioxan-2-yl)methyl)thiazole-2-carboxamide]
- IC50: 5 to 25 nM

SMILES: CCOc1cncc(-c2cnc(C(=O)N[C@@H](c3cc(NS(=O)(=O)C4CC4)ccn3)[C@@H]3C[C@@H]4CC[C@H]3O4)s2)n1 [I-81, N-((R)-((1R,2S,4S)-7-oxabicyclo[2.2.1]heptan-2-yl)(4-(cyclopropanesulfonamido)pyridin-2-yl)methyl)-5-(6-ethoxypyrazin-2-yl)thiazole-2-carboxamide]
- IC50: ≤ 5 nM

SMILES: CCOc1cncc(-c2cnc(C(=O)N[C@H](c3cc(NS(=O)(=O)C4CC4)ccn3)[C@@H]3C[C@@H]4CC[C@H]3O4)s2)n1 [I-82, N-((S)-((1R,2S,4S)-7-oxabicyclo[2.2.1]heptan-2-yl)(4-(cyclopropanesulfonamido)pyridin-2-yl)methyl)-5-(6-ethoxypyrazin-2-yl)thiazole-2-carboxamide]
- IC50: ≤ 5 nM

SMILES: CCOc1cncc(-c2cnc(C(=O)N[C@H](c3cc(NS(=O)(=O)C4CC4)ccn3)[C@H]3C[C@H]4CC[C@@H]3O4)s2)n1 [I-83, N-((S)-((1S,2R,4R)-7-oxabicyclo[2.2.1]heptan-2-yl)(4-(cyclopropanesulfonamido)pyridin-2-yl)methyl)-5-(6-ethoxypyrazin-2-yl)thiazole-2-carboxamide]
- IC50: 5 to 25 nM

SMILES: CCOc1cncc(-c2cnc(C(=O)N[C@@H](c3cc(NS(=O)(=O)C4CC4)ccn3)[C@H]3C[C@H]4CC[C@@H]3O4)s2)n1 [I-84, N-((R)-((1S,2R,4R)-7-oxabicyclo[2.2.1]heptan-2-yl)(4-(cyclopropanesulfonamido)pyridin-2-yl)methyl)-5-(6-ethoxypyrazin-2-yl)thiazole-2-carboxamide]
- IC50: ≤ 5 nM

SMILES: O=C(N[C@H](c1cc(NS(=O)(=O)C2CC2)ccn1)C1CCOCC1)c1ncc(-c2cnn3ccc(Cl)cc23)s1 [I-85, (S)-5-(5-chloropyrazolo[1,5-a]pyridin-3-yl)-N-((4-(cyclopropanesulfonamido)pyridin-2-yl)(tetrahydro-2H-pyran-4-yl)methyl)thiazole-2-carboxamide]
- IC50: 25 to 50 nM

SMILES: O=C(N[C@@H](c1cc(NS(=O)(=O)C2CC2)ccn1)C1CCOCC1)c1ncc(-c2cnn3ccc(Cl)cc23)s1 [I-86, (R)-5-(5-chloropyrazolo[1,5-a]pyridin-3-yl)-N-((4-(cyclopropanesulfonamido)pyridin-2-yl)(tetrahydro-2H-pyran-4-yl)methyl)thiazole-2-carboxamide]
- IC50: 5 to 25 nM

SMILES: CCOc1cncc(-c2cnc(C(=O)N[C@]3(c4cc(NS(=O)(=O)C5CC5)ccn4)C[C@H](O)C3)s2)n1 [I-87, N-((1s,3s)-1-(4-(cyclopropanesulfonamido)pyridin-2-yl)-3-hydroxycyclobutyl)-5-(6-ethoxypyrazin-2-yl)thiazole-2-carboxamide]
- IC50: ≤ 5 nM

SMILES: CCOc1cncc(-c2cnc(C(=O)N[C@]3(c4cc(NS(=O)(=O)C5CC5)ccn4)C[C@@H](O)C3)s2)n1 [I-88, N-((1r,3r)-1-(4-(cyclopropanesulfonamido)pyridin-2-yl)-3-hydroxycyclobutyl)-5-(6-ethoxypyrazin-2-yl)thiazole-2-carboxamide]
- IC50: ≤ 5 nM

SMILES: O=C(N[C@]1(c2cc(NS(=O)(=O)C3CC3)ccn2)C[C@H](O)C1)c1ncc(-c2cnn3ccc(Cl)cc23)s1 [I-89, 5-(5-chloropyrazolo[1,5-a]pyridin-3-yl)-N-((1s,3s)-1-(4-(cyclopropanesulfonamido)pyridin-2-yl)-3-hydroxycyclobutyl)thiazole-2-carboxamide]
- IC50: 5 to 25 nM

SMILES: O=C(N[C@]1(c2cc(NS(=O)(=O)C3CC3)ccn2)C[C@@H](O)C1)c1ncc(-c2cnn3ccc(Cl)cc23)s1 [I-90, 5-(5-chloropyrazolo[1,5-a]pyridin-3-yl)-N-((1r,3r)-1-(4-(cyclopropanesulfonamido)pyridin-2-yl)-3-hydroxycyclobutyl)thiazole-2-carboxamide]
- IC50: 5 to 25 nM

SMILES: CCOc1cncc(-c2cnc(C(=O)N[C@@H](c3cc(NS(=O)(=O)C4CC4)ccn3)C(C)(C)OC)s2)n1 [I-91, (S)-N-(1-(4-(cyclopropanesulfonamido)pyridin-2-yl)-2-methoxy-2-methylpropyl)-5-(6-ethoxypyrazin-2-yl)thiazole-2-carboxamide]
- IC50: 5 to 25 nM

SMILES: CCOc1cncc(-c2cnc(C(=O)N[C@H](c3cc(NS(=O)(=O)C4CC4)ccn3)C(C)(C)OC)s2)n1 [I-92, (R)-N-(1-(4-(cyclopropanesulfonamido)pyridin-2-yl)-2-methoxy-2-methylpropyl)-5-(6-ethoxypyrazin-2-yl)thiazole-2-carboxamide]
- IC50: 25 to 50 nM

SMILES: CCOc1cncc(-c2cnc(C(=O)N[C@H](c3cc(NS(=O)(=O)C4CC4)ccn3)[C@H]3CCN(C4CCCC4)C3)s2)n1 [I-93, N-((S)-((S)-1-cyclopentylpyrrolidin-3-yl)(4-(cyclopropanesulfonamido)pyridin-2-yl)methyl)-5-(6-ethoxypyrazin-2-yl)thiazole-2-carboxamide]
- IC50: 5 to 25 nM

Source: patent publication US20250270200A1, “CTPS1 INHIBITORS AND USES THEREOF” (Nimbus Clotho, Inc., priority 2022, published 2025)
